# PMC4256349, “A Conformational Sampling Model for Radical Catalysis in Pyridoxal Phosphate- and Cobalamin-dependent Enzymes” (The Journal of Biological Chemistry, 2014)
# Tests used:
# [1] = biological target: T1, ornithine 4,5-aminomutase (OAM) (Acetoanaerobium sticklandii, UniProt E3PY95); set-up: gene oraE; settings: anaerobic, pH 8.5, 25 °C; equimolar with apoenzyme; covalent (Lys629)
# T1 sequence (E3PY95 1-740): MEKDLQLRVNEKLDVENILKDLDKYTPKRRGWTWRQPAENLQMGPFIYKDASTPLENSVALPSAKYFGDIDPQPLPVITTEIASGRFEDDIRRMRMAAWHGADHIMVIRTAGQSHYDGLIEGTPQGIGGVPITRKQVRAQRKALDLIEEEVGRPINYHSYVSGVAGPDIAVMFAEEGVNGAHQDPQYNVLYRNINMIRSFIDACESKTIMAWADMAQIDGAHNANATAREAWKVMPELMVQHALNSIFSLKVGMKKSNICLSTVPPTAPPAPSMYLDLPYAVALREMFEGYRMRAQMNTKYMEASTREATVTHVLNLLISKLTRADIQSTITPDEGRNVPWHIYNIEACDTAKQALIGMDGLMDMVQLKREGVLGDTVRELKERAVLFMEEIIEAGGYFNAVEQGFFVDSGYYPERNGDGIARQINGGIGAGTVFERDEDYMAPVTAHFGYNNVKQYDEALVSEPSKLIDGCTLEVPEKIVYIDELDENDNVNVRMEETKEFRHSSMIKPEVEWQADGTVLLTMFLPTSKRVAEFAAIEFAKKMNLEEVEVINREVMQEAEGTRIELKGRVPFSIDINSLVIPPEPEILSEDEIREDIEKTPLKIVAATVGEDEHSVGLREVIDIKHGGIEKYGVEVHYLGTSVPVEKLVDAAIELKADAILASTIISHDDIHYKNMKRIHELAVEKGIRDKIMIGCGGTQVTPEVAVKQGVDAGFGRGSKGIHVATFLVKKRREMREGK
# T1 sequence (E3PY96 1-121 partner): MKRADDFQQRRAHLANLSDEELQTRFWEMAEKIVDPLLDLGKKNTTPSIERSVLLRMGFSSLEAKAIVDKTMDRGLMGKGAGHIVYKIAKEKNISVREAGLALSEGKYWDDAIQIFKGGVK
# [2] = biological target: T1, ornithine 4,5-aminomutase (OAM); test: UV-visible spectra, external aldimine formation; format: binding; set-up: gene oraE; C-terminal His6 (pET-OAMH2), expressed in E. coli; purified apoenzyme reconstituted with PLP and AdoCbl; OAM dimer printed (alpha2beta2 known); settings: aerobic, pH 8.5, 25 °C, 5 mM; inhibitor, covalent (PLP external aldimine)
# [3] = biological target: T1, ornithine 4,5-aminomutase (OAM); test: UV-visible, stopped flow and EPR; external aldimine and Co-C homolysis; format: binding; set-up: gene oraE; C-terminal His6 (pET-OAMH2), expressed in E. coli; purified apoenzyme reconstituted with PLP and AdoCbl; OAM dimer printed (alpha2beta2 known); settings: anaerobic, pH 8.5, 25 °C, 2.5 mM; inhibitor, covalent (PLP external aldimine)
smiles,measurement,setting,value
Cc1ncc(COP(=O)(O)O)c(C=O)c1O [PLP],"UV-visible spectra, transimination at 416 nm",[1],transimination induced by the D-ornithine binding with PLP
"NCC(N)C(=O)O (racemic) [DL-2,3-diaminopropanoic acid]","UV-visible spectra, external aldimine formation",[2],does not induce AdoCbl bond homolysis but does lead to external aldimine formation
"NCCC(N)C(=O)O (racemic) [DL-2,4-diaminobutyric acid]","UV-visible, stopped flow and EPR; external aldimine and Co-C homolysis",[3],transimination induced by the DAB binding with PLP
